In ChEMBL document CHEMBL3525943, “Regiospecific and stereospecific triangulation of the structures of metabolites formed by sequential metabolism at multiple prochiral centers” (Drug Metab Dispos, 2012):
One block for each molecule: values may come before it.

Assays:
Type in all cases: ADME, organism-based
Details in all cases: in vivo; call rule not given here
[1] = Drug level in Sprague-Dawley rat urine at 2 mg/kg, po measured over 24 hrs by LC-MS/HPLC radiometric analysis; set-up: dose 2 mg/kg, route oral
[2] = Drug metabolism in Sprague-Dawley rat urine assessed as formation of (S)-2-((1R,2S,4R,5S)-5-hydroxybicyclo[2.2.1]heptan-2-ylamino)-5-((R)-1-hydroxypropan-2-yl)-5-methylthiazol-4(5H)-one at 5 mg/kg, po measured over 24 hrs by LC-MS/HPLC radiometric analysis; set-up: dose 5 mg/kg, route oral
[3] = Drug recovery in feces of Sprague-Dawley rat at 5 mg/kg, po measured after 72 hrs by liquid scintillation counting analysis; set-up: dose 5 mg/kg, route oral
[4] = Drug metabolism in Sprague-Dawley rat urine assessed as formation of (S)-2-((1R,2S,4R,5R)-5-hydroxybicyclo[2.2.1]heptan-2-ylamino)-5-((S)-1-hydroxypropan-2-yl)-5-methylthiazol-4(5H)-one at 5 mg/kg, po measured over 24 hrs by LC-MS/HPLC radiometric analysis; set-up: dose 5 mg/kg, route oral
[5] = Drug recovery in bile of bile duct cannulated Sprague-Dawley rat at 5 mg/kg, po measured over 48 hrs by liquid scintillation counting analysis; set-up: dose 5 mg/kg, route oral
Plasma [6] = assay: Drug level in Sprague-Dawley rat plasma at 5 mg/kg, po measured after 72 hrs by liquid scintillation counting analysis; set-up: dose 5 mg/kg, route oral
[7] = Drug metabolism in Sprague-Dawley rat urine assessed as formation of (S)-5-isopropyl-5-methyl-2-((1R,2S,4R)-5-oxobicyclo[2.2.1]heptan-2-ylamino)thiazol-4(5H)-one at 5 mg/kg, po measured over 24 hrs by LC-MS/HPLC radiometric analysis; set-up: dose 5 mg/kg, route oral
[8] = Drug metabolism in Sprague-Dawley rat urine assessed as formation of (2S,3S,4S,5R)-3,4,5-trihydroxy-6-((1R,2S,4R,5S)-5-((S)-5-isopropyl-5-methyl-4-oxo-4,5-dihydrothiazol-2-ylamino)bicyclo[2.2.1]heptan-2-yloxy)tetrahydro-2H-pyran-2-carboxylic acid at 5 mg/kg, po measured over 48 hrs by LC-MS/HPLC radiometric analysis; set-up: dose 5 mg/kg, route oral
[9] = Drug recovery in urine of bile duct cannulated Sprague-Dawley rat at 5 mg/kg, po measured over 48 hrs by liquid scintillation counting analysis; set-up: dose 5 mg/kg, route oral
[10] = Drug recovery in urine of Sprague-Dawley rat at 5 mg/kg, po measured after 72 hrs by liquid scintillation counting analysis; set-up: dose 5 mg/kg, route oral
[11] = Drug metabolism in Sprague-Dawley rat urine assessed as formation of (S)-2-((1R,2S,4R,5S)-5-hydroxybicyclo[2.2.1]heptan-2-ylamino)-5-(2-hydroxypropan-2-yl)-5-methylthiazol-4(5H)-one at 5 mg/kg, po measured over 24 hrs by LC-MS/HPLC radiometric analysis; set-up: dose 5 mg/kg, route oral
[12] = Drug metabolism in Sprague-Dawley rat urine assessed as formation of (S)-2-((1R,2S,4R,5S)-5-hydroxybicyclo[2.2.1]heptan-2-ylamino)-5-((S)-1-hydroxypropan-2-yl)-5-methylthiazol-4(5H)-one at 2 mg/kg, po measured over 24 hrs by LC-MS/HPLC radiometric analysis; set-up: dose 2 mg/kg, route oral
[13] = Drug metabolism in Sprague-Dawley rat urine assessed as formation of (S)-2-((1R,2S,4R,5S)-5-hydroxybicyclo[2.2.1]heptan-2-ylamino)-5-(2-hydroxypropan-2-yl)-5-methylthiazol-4(5H)-one at 2 mg/kg, po measured over 24 hrs by LC-MS/HPLC radiometric analysis; set-up: dose 2 mg/kg, route oral
[14] = Drug metabolism in Sprague-Dawley rat urine assessed as formation of (S)-2-((1S,2S,4R,6R)-6-hydroxybicyclo[2.2.1]heptan-2-ylamino)-5-((S)-1-hydroxypropan-2-yl)-5-methylthiazol-4(5H)-one at 2 mg/kg, po measured over 24 hrs by LC-MS/HPLC radiometric analysis; set-up: route oral, dose 2 mg/kg
[15] = Drug metabolism in Sprague-Dawley rat urine assessed as formation of (S)-5-isopropyl-5-methyl-2-((1R,2S,4R)-5-oxobicyclo[2.2.1]heptan-2-ylamino)thiazol-4(5H)-one at 2 mg/kg, po measured over 24 hrs by LC-MS/HPLC radiometric analysis; set-up: dose 2 mg/kg, route oral
[16] = Drug recovery in urine of Sprague-Dawley rat at 2 mg/kg, po measured over 48 hrs by liquid scintillation counting analysis; set-up: dose 2 mg/kg, route oral
[17] = Drug metabolism in Sprague-Dawley rat urine assessed as formation of (S)-2-((1S,2S,4R)-bicyclo[2.2.1]heptan-2-ylamino)-5-((R)-1-hydroxypropan-2-yl)-5-methylthiazol-4(5H)-one at 2 mg/kg, po measured over 24 hrs by LC-MS/HPLC radiometric analysis; set-up: dose 2 mg/kg, route oral
[18] = Drug metabolism in Sprague-Dawley rat urine assessed as formation of (S)-2-((1R,2S,4R,5R)-5-hydroxybicyclo[2.2.1]heptan-2-ylamino)-5-isopropyl-5-methylthiazol-4(5H)-one at 2 mg/kg, po measured over 24 hrs by LC-MS/HPLC radiometric analysis; set-up: dose 2 mg/kg, route oral
[19] = Drug recovery in feces of Sprague-Dawley rat at 2 mg/kg, po measured over 48 hrs by liquid scintillation counting analysis; set-up: dose 2 mg/kg, route oral
Plasma [20] = assay: Drug metabolism in Sprague-Dawley rat plasma assessed as formation of (S)-2-((1S,2S,4R)-bicyclo[2.2.1]heptan-2-ylamino)-5-((R)-1-hydroxypropan-2-yl)-5-methylthiazol-4(5H)-one at 2 mg/kg, po measured at 0.5 hrs by LC-MS/HPLC radiometric analysis; set-up: dose 2 mg/kg, route oral
[21] = Drug metabolism in Sprague-Dawley rat feces assessed as formation of (1R,2R,4R,5S)-5-((S)-5-isopropyl-5-methyl-4-oxo-4,5-dihydrothiazol-2-ylamino)bicyclo[2.2.1]heptan-2-yl hydrogen sulfate at 2 mg/kg, po measured over 24 hrs by LC-MS/HPLC radiometric analysis; set-up: dose 2 mg/kg, route oral
Plasma [22] = assay: Drug level in Sprague-Dawley rat plasma at 2 mg/kg, po measured at 0.5 hrs by LC-MS/HPLC radiometric analysis; set-up: dose 2 mg/kg, route oral
[23] = Drug metabolism in Sprague-Dawley rat urine assessed as formation of trihydroxy norbornyl metabolite at 2 mg/kg, po measured over 24 hrs by LC-MS/HPLC radiometric analysis; set-up: dose 2 mg/kg, route oral
Plasma [24] = assay: Drug metabolism in Sprague-Dawley rat plasma assessed as formation of (S)-2-((1S,2S,4R)-bicyclo[2.2.1]heptan-2-ylamino)-5-((S)-1-hydroxypropan-2-yl)-5-methylthiazol-4(5H)-one at 2 mg/kg, po measured at 0.5 hrs by LC-MS/HPLC radiometric analysis; set-up: dose 2 mg/kg, route oral
Plasma [25] = assay: Drug metabolism in Sprague-Dawley rat plasma assessed as formation of (S)-2-((1R,2S,4R,5S)-5-hydroxybicyclo[2.2.1]heptan-2-ylamino)-5-isopropyl-5-methylthiazol-4(5H)-one at 2 mg/kg, po measured at 0.5 hrs by LC-MS/HPLC radiometric analysis; set-up: dose 2 mg/kg, route oral
Plasma [26] = assay: Drug metabolism in Sprague-Dawley rat plasma assessed as formation of (S)-5-isopropyl-5-methyl-2-((1R,2S,4R)-5-oxobicyclo[2.2.1]heptan-2-ylamino)thiazol-4(5H)-one at 2 mg/kg, po measured at 0.5 hrs by LC-MS/HPLC radiometric analysis; set-up: dose 2 mg/kg, route oral
Plasma [27] = assay: Drug metabolism in Sprague-Dawley rat plasma assessed as formation of (S)-2-((1R,2S,4R,5R)-5-hydroxybicyclo[2.2.1]heptan-2-ylamino)-5-isopropyl-5-methylthiazol-4(5H)-one at 2 mg/kg, po measured at 0.5 hrs by LC-MS/HPLC radiometric analysis; set-up: dose 2 mg/kg, route oral
[28] = Drug metabolism in Sprague-Dawley rat urine assessed as formation of (S)-2-((1S,2S,4R,6R)-6-hydroxybicyclo[2.2.1]heptan-2-ylamino)-5-isopropyl-5-methylthiazol-4(5H)-one at 2 mg/kg, po measured over 24 hrs by LC-MS/HPLC radiometric analysis; set-up: dose 2 mg/kg, route oral
[29] = Drug metabolism in Sprague-Dawley rat urine assessed as formation of (S)-2-((1R,2S,4R,5S)-5-hydroxybicyclo[2.2.1]heptan-2-ylamino)-5-isopropyl-5-methylthiazol-4(5H)-one at 2 mg/kg, po measured over 24 hrs by LC-MS/HPLC radiometric analysis; set-up: dose 2 mg/kg, route oral
[30] = Drug level in Sprague-Dawley rat feces at 2 mg/kg, po measured over 24 hrs by LC-MS/HPLC radiometric analysis; set-up: dose 2 mg/kg, route oral
[31] = Drug metabolism in Sprague-Dawley rat feces assessed as formation of trihydroxy norbornyl metabolite at 2 mg/kg, po measured over 24 hrs by LC-MS/HPLC radiometric analysis; set-up: dose 2 mg/kg, route oral
Rattus norvegicus = assay: Total drug recovery in Sprague-Dawley rat at 2 mg/kg, po measured over 48 hrs by liquid scintillation counting analysis; set-up: dose 2 mg/kg, route oral

- Drug uptake [1]: Active
- Drug metabolism [2]: metabolite_detected
- Drug recovery [3]: 7%
- Drug metabolism [4]: metabolite_detected
- Drug recovery [5]: 10%
- Drug uptake (Plasma [6]): Active
- Drug metabolism [7]: metabolite_detected
- Drug metabolism [8]: metabolite_detected
- Drug recovery [9]: 55%
- Drug recovery [10]: 89%
- Drug metabolism [11]: metabolite_detected
Structure (SMILES): CC(C)[C@]1([14CH3])SC(N[C@H]2C[C@H]3C[C@@H]2C[C@@H]3O)=NC1=O

- Drug metabolism [12]: metabolite_detected
- Drug metabolism [13]: metabolite_detected
- Drug metabolism [14]: metabolite_detected
- Drug metabolism [15]: metabolite_detected
- Drug recovery [16]: 64%
- Drug uptake [1]: Not Active
- Drug metabolism [17]: metabolite_detected
- Drug metabolism [18]: metabolite_detected
- Drug recovery [19]: 14%
- Drug metabolism (Plasma [20]): metabolite_detected
- Drug metabolism [21]: metabolite_detected
- Drug uptake (Plasma [22]): Active
- Drug metabolism [23]: metabolite_detected
- Drug metabolism (Plasma [24]): metabolite_detected
- Drug metabolism (Plasma [25]): metabolite_detected
- Drug metabolism (Plasma [26]): metabolite_detected
- Drug metabolism (Plasma [27]): metabolite_detected
- Drug metabolism [28]: metabolite_detected
- Drug metabolism [29]: metabolite_detected
- Drug uptake [30]: Not Active
- Drug metabolism [31]: metabolite_detected
- Drug recovery (Rattus norvegicus): 81%
Structure (SMILES): CC(C)[C@]1([14CH3])SC(N[C@H]2C[C@@H]3CC[C@H]2C3)=NC1=O
